# Laboratory results reported in patent US7989460B2, “Quinazoline derivatives as angiogenesis inhibitors” (AstraZeneca AB, priority 2003, dated 2011).
# How the values were obtained:
# [1] = molecular target: T1, KDR (Homo sapiens, UniProt P35968); assay: In vitro receptor tyrosine kinase inhibition test (a), enzyme assay against KDR; assay type: biochemical; details: KDR cytoplasmic domain
# T1 construct: made in house; host or cells: insect cells (Spodoptera frugiperda Sf21, baculovirus)
# Excerpt: (a) In Vitro Receptor Tyrosine Kinase Inhibition Test
# This assay determines the ability of a test compound to inhibit tyrosine kinase activity. DNA encoding VEGF, FGF or EGF receptor cytoplasmic domains may be obtained by total gene synthesis (Edwards M, International Biotechnology Lab 5(3), 19-25, 1987) or by cloning. These may then be expressed in a suitable expression system to obtain polypeptide with tyrosine kinase activity. […] In the case of the VEGF receptor Flt-1 (Genbank accession number X51602), a 1.7 kb DNA fragment encoding most of the cytoplasmic domain, commencing with methionine 783 and including the termination codon, described by Shibuya et al (Oncogene, 1990, 5: 519-524), was isolated from cDNA and cloned into a baculovirus transplacement vector (for example pAcYM1 (see The Baculovirus Expression System: A Laboratory Guide, L. A. King and R. D. Possee, Chapman and Hall, 1992) or pAc360 or pBlueBacHis (available from Invitrogen Corporation)). This recombinant construct was co-transfected into insect cells (for example Spodoptera frugiperda 21(5f21)) with viral DNA (eg Pharmingen BaculoGold) to prepare recombinant baculovirus. […]
# [2] = molecular target: T2, human ether-a-go-go-related-gene (hERG)-encoded potassium channel (Homo sapiens, UniProt Q12809); assay: hERG-encoded potassium channel inhibition test (d); assay type: cell-based; details: HEK cells expressing hERG-encoded channel, tail current, whole cell patch clamp
# T2 construct: expressed in transfected cells; host or cells: Human embryonic kidney (HEK) cells
# Experimental: d) hERG-encoded Potassium Channel Inhibition Test
# This assay determines the ability of a test compound to inhibit the tail current flowing through the human ether-a-go-go-related-gene (hERG)-encoded potassium channel.
# Human embryonic kidney (HEK) cells expressing the hERG-encoded channel were grown in Minimum Essential Medium Eagle (EMEM; Sigma-Aldrich catalogue number M2279), supplemented with 10% Foetal Calf Serum (Labtech International; product number 4-101-500), 10% M1 serum-free supplement (Egg Technologies; product number 70916) and 0.4 mg/ml Geneticin G418 (Sigma-Aldrich; catalogue number G7034). […]
# For each cell recorded, a glass coverslip containing the cells was placed at the bottom of a Perspex chamber containing bath solution (see below) at ambient temperature ([…]). […]
# The cell was recorded in the whole cell configuration of the patch clamp technique. […]
# The amplitude of the hERG-encoded potassium channel tail current following the step from +40 mV to −50 mV was recorded on-line by Clampex software (Axon Instruments). […]
# The effect of each concentration of test compound was quantified by expressing the tail current amplitude in the presence of a given concentration of test compound as a percentage of that in the presence of vehicle. […]
# T2 sequence (Q12809 whole entry): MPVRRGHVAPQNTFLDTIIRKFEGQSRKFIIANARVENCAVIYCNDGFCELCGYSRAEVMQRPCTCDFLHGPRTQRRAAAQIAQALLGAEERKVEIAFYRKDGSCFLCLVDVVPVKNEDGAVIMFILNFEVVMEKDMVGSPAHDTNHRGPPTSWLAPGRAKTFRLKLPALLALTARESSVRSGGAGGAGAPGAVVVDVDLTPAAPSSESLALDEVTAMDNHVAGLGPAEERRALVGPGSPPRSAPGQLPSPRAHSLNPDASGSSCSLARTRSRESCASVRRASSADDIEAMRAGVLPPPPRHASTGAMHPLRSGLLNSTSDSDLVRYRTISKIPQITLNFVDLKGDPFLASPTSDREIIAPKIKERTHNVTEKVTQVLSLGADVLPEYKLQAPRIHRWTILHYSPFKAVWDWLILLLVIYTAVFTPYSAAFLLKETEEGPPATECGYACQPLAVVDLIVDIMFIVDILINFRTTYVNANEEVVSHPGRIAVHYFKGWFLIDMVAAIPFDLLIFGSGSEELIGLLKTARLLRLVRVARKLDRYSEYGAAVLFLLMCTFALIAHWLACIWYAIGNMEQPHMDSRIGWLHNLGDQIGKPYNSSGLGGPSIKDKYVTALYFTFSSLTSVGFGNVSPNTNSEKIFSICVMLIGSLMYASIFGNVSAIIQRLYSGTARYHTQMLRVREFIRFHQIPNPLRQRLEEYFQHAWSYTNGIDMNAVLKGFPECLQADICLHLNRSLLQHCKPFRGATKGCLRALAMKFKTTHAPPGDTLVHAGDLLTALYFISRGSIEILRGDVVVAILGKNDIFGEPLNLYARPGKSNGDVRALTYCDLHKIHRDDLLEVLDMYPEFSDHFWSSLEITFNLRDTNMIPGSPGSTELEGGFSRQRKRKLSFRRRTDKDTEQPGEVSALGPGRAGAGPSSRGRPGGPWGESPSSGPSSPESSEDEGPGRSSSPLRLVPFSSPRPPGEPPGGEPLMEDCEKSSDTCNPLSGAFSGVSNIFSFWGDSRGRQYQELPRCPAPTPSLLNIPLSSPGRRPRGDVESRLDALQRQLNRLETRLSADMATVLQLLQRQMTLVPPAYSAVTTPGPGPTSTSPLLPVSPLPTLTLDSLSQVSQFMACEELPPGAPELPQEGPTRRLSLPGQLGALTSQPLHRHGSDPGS
# T1 sequence (P35968 786-1356 limits assumed): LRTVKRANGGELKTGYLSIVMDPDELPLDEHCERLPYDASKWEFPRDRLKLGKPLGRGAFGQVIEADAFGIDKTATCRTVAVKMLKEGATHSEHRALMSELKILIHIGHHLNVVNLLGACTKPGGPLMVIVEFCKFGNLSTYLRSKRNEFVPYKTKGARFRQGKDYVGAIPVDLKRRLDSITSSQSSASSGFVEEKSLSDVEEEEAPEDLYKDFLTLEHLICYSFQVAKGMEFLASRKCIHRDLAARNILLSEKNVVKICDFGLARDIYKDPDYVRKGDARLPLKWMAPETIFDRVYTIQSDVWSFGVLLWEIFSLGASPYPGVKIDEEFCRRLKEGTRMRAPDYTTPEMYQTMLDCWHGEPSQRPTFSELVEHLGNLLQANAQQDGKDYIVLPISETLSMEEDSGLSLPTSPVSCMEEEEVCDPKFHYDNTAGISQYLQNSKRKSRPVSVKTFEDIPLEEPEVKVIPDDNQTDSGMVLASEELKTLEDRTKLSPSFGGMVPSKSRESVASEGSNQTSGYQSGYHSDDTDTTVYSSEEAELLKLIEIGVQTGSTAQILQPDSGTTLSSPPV
compound,measurement,setting,value
"COc1cc2c(Oc3ccc4[nH]c(C)c(C)c4c3)ncnc2cc1OCCN1CCN(CC(C)=O)CC1 [Example 11, 7-{2-[4-(acetylmethyl)piperazin-1-yl]ethoxy}-4-[(2,3-dimethyl-1H-indol-5-yl)oxy]-6-methoxyquinazoline]",IC50,[1],0.104 µM
same,IC50,[2],10.1 µM
